In the test the test system is Foxp3 induction in CD4 conventional T cells (iTreg induction). Briefly: Foxp3 induction assay. The test is classed as cell-based, C57/B16 mice. The following applies: T-cell, 72 h; mouse CD4 Tconvs, anti-CD3/anti-CD28, IL2, TGF-β, 3 days of culture, flow cytometry; read-out: IC50 value as measured by the Foxp3 induction assay. The procedure: Sorted or enriched (Miltenyi magnetic separation) CD4 conventional T cells (Tconvs −CD4+/CD25) from C57/B16 mice were used for the induction of iTregs. A 10 µg/mL plate-bound anti-CD3 antibody (50 ul per well for 96-well plate), […] of soluble anti-CD28 antibody, 100 IU/mL of IL2 and 5 ng/mL of TGF-β in absence or presence of different concentrations of drug (usually titrating from 0.01 uM to 10 uM) were used. As negative control for induction, samples without TGF-β were used.
After 3 days of culture in presence of stimulation, TGF-β and drug, cells were stained with fixable live/dead cell stain (Life Technologies, NY) for gating and exclusion of toxic doses. The mouse Foxp3 buffer kit was used to fix and permeabilize cells according to the manufacturer's instructions (BD Bioscience, San Jose, CA). The anti-CD4 antibody and anti-Foxp3 antibody were used to stain the cells. After staining, cells were acquired using flow cytometer.

Turning to `O=C(Nc1ccc2c(c1)Nc1ccncc1CC2)c1ccc(Nc2ccncc2)cc1` [Compound 1, N-(10,11-dihydro-5H-benzo[b]pyrido[3,4-f]azepin-7-yl)-4-(pyridin-4-ylamino)benzamide], the IC50 was less than 1000 nM.

The term IC50 denotes the concentration needed to halve the response being measured.

These data come from patent US20250074905A1, “AKT3 MODULATORS” (Georgiamune Inc., priority 2021, published 2025).
